ChEMBL document CHEMBL1201862, “PubChem BioAssay data set” (2004)
Active and inactive are the calls of the source.

What was measured:
[1] = SAR analysis of small molecule activators of Apaf-1 using a LZ-Caspase-9/Caspase-3 Fluorescent Selectivity assay - Set 2.; type: functional; settings: read-out: EC50_Mean
[2] = biological target: T1, Apoptotic protease-activating factor 1 (Homo sapiens, UniProt O14727); experiment: SAR analysis of small molecule Activators of Apaf-1 in a Fluorescent assay - set 2.; type: functional; settings: read-out: EC50_Mean
T1 sequence (O14727 whole entry): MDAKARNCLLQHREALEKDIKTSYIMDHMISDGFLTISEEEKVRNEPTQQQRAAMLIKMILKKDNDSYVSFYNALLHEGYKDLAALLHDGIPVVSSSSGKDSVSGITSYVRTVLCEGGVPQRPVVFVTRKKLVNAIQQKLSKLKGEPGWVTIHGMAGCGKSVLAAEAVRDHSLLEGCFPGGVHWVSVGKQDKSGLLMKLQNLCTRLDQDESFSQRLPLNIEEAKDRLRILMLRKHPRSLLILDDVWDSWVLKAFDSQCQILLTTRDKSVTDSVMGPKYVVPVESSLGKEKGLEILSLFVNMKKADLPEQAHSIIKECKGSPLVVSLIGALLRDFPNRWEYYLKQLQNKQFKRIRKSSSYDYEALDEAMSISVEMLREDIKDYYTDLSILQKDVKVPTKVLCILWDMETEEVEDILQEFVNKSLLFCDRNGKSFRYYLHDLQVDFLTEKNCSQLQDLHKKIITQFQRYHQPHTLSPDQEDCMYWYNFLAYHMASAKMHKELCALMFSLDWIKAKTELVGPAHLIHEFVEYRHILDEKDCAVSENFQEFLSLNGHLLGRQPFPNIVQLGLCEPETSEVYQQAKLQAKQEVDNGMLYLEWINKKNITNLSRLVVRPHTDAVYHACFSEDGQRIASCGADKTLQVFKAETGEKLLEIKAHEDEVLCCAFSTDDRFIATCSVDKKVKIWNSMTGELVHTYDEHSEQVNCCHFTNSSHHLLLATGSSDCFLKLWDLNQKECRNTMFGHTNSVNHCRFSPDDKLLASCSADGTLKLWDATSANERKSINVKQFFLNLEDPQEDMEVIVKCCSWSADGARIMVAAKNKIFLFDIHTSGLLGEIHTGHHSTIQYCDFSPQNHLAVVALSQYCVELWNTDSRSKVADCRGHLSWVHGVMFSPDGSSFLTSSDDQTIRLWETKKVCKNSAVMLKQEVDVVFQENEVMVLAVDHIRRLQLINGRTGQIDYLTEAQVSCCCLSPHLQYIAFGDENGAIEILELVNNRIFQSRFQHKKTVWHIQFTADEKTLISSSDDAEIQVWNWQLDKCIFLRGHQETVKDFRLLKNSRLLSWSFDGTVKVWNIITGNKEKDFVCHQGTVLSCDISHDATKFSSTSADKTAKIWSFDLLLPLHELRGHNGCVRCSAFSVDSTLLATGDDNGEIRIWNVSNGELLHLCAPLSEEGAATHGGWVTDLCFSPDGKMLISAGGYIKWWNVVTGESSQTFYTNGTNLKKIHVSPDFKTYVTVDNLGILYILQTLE

SMILES: CC(Cn1cccn1)C(=O)O (configuration not stated)
- EC50 [1]: > 100 µM (inactive)
- EC50 [2]: > 100 µM (inactive)
